Where “and” joins values, the source holds several entries; their conditions need not be identical. Identical values can stand only once.
How the values were obtained:
[1] = 102 kPa, Liquid; for speed of sound: Frequency=3 MHz, Single path-length method; for mass density: Vibrating tube method; for viscosity: Concentric cylinders viscometry
[2] = xn = mol fraction of the nth substance listed; settings: 102 kPa, Liquid, x2 = 0; for speed of sound: Frequency=3 MHz, Single path-length method; for mass density: Vibrating tube method; for viscosity: Concentric cylinders viscometry

CCCCCCCCCCCCC1CCCCC1 [dodecylcyclohexane]
[1]
Settings | mass density [kg/m3] | speed of sound [m/s] | viscosity
288.15 K | 825.71 | 1441.5 | –
293.15 K | 822.36 | 1422.9 | 7.77 mPa·s and 7.76 mPa·s
298.15 K | 819.02 | 1404.8 | –
303.15 K | 815.68 | 1386.3 | 5.81 mPa·s
313.15 K | 809.03 | 1350.5 | 4.48 mPa·s
323.15 K | 802.38 | 1315.4 | 3.55 mPa·s
333.15 K | 795.75 | 1281.4 | 2.87 mPa·s and 2.88 mPa·s

CCCCCCCCCCCC [dodecane]
[1]
Settings | mass density | speed of sound [m/s] | viscosity [mPa·s]
288.15 K | 752.35 kg/m3 | 1317.2 | –
293.15 K | 748.72 kg/m3 | 1297.7 | 1.49
298.15 K | 745.09 kg/m3 | 1278.2 | –
303.15 K | 741.46 kg/m3 | 1259 | 1.27
313.15 K | 734.18 kg/m3 and 734.19 kg/m3 | 1221.1 | 1.08
323.15 K | 726.88 kg/m3 | 1184 | 0.934
333.15 K | 719.53 kg/m3 | 1147.8 | 0.813

CCCCCCCCC1CCCCC1 [octylcyclohexane]
[1]
Settings | mass density | speed of sound [m/s] | viscosity [mPa·s]
288.15 K | 817.58 kg/m3 | 1405.5 | –
293.15 K | 814.13 kg/m3 | 1386.4 | 3.52
298.15 K | 810.67 kg/m3 | 1367.4 | –
303.15 K | 807.21 kg/m3 and 807.2 kg/m3 | 1348.6 | 2.79
313.15 K | 800.28 kg/m3 | 1311.6 | 2.26
323.15 K | 793.35 kg/m3 | 1275.5 | 1.87
333.15 K | 786.41 kg/m3 | 1240.3 | 1.57

CCCCCCCCCCCC [dodecane] + CCCC1CCCCC1
[2]
Settings | mass density [kg/m3] | speed of sound [m/s] | viscosity [mPa·s]
288.15 K | 752.35 | 1317.2 | –
293.15 K | 748.72 | 1297.7 | 1.49
298.15 K | 745.09 | 1278.2 | –
303.15 K | 741.46 | 1259 | 1.27
313.15 K | 734.19 | 1221.1 | 1.08
323.15 K | 726.88 | 1184 | 0.934
333.15 K | 719.53 | 1147.8 | 0.813

CCCCCCCCCCCC [dodecane] + CCCCCCCC1CCCCC1
[2]
Settings | mass density [kg/m3] | speed of sound [m/s] | viscosity [mPa·s]
288.15 K | 752.35 | 1317.2 | –
293.15 K | 748.72 | 1297.7 | 1.49
298.15 K | 745.09 | 1278.2 | –
303.15 K | 741.46 | 1259 | 1.27
313.15 K | 734.19 | 1221.1 | 1.08
323.15 K | 726.88 | 1184 | 0.934
333.15 K | 719.53 | 1147.8 | 0.813

CCCCCCCCCCCC [dodecane] + CCCCCCCCC1CCCCC1
[2]
Settings | mass density [kg/m3] | speed of sound [m/s] | viscosity [mPa·s]
288.15 K | 752.35 | 1317.2 | –
293.15 K | 748.72 | 1297.7 | 1.49
298.15 K | 745.09 | 1278.2 | –
303.15 K | 741.46 | 1259 | 1.27
313.15 K | 734.19 | 1221.1 | 1.08
323.15 K | 726.88 | 1184 | 0.934
333.15 K | 719.53 | 1147.8 | 0.813

CCCCCCCCCCCC [dodecane] + CCCCCC1CCCCC1
[2]
Settings | mass density [kg/m3] | speed of sound [m/s] | viscosity [mPa·s]
288.15 K | 752.35 | 1317.2 | –
293.15 K | 748.72 | 1297.7 | 1.49
298.15 K | 745.09 | 1278.2 | –
303.15 K | 741.46 | 1259 | 1.27
313.15 K | 734.19 | 1221.1 | 1.08
323.15 K | 726.88 | 1184 | 0.934
333.15 K | 719.53 | 1147.8 | 0.813

CCCCCCCC1CCCCC1 [heptylcyclohexane]
[1]
Settings | mass density | speed of sound [m/s] | viscosity [mPa·s]
288.15 K | 814.51 kg/m3 | 1393.6 | –
293.15 K | 811 kg/m3 | 1374.2 | 2.8
298.15 K | 807.49 kg/m3 | 1355.1 | –
303.15 K | 803.99 kg/m3 and 803.98 kg/m3 | 1336.1 | 2.25
313.15 K | 796.95 kg/m3 | 1298.8 | 1.85
323.15 K | 789.91 kg/m3 | 1262.2 | 1.55
333.15 K | 782.85 kg/m3 | 1226.7 | 1.31

Reference: the NIST ThermoML archive (doi:10.1021/acs.jced.8b01135)
